The source of these data is ChEMBL document CHEMBL1150217, “Molecular structure and activity toward DNA of baicalein, a flavone constituent of the Asian herbal medicine "Sho-saiko-to"” (J Nat Prod, 2001).

Calls of active or inactive are those of the source. No cut-off for these calls is given here.

One experiment relates to Calf thymus DNA. Nature of the experiment: Binding affinity to calf thymus DNA assessed as intercalation by agarose gel electrophoresis. Format: nucleic-acid assay. Particulars: Bos taurus.
Experiment [1] has as its system Human immunodeficiency virus. Nature of the experiment: Inhibition of HIV integrase.

`O=c1cc(-c2ccccc2)oc2cc(O)c(O)c(O)c12`: the outcome (with Calf thymus DNA; in experiment [1]) was Active.
